Results: PMC12669672, “Structural insights into selective and dual antagonism of EP2 and EP4 prostaglandin receptors” (The EMBO Journal, 2025)
Where “and” joins values, the source holds several entries; their conditions need not be identical. Equal entries are not always repeated.

Columns and labels:
Assay in all cases: GloSensor cAMP assay, inhibition of constitutive activity
Format in all cases: cell-based
[1] = molecular target: T1, constitutively active EP4 S319A (Homo sapiens, UniProt P35408, S319A); conditions: for ΔpIC50: no PGE2, pIC50 mutant - pIC50 WT, mean
T1 construct: The full-length EP2 or EP4 was cloned into the pcDNA3.1 vector (Invitrogen), incorporating an N-terminal FLAG tag; expressed in transfected cells; host or cells: AD293
T1 sequence (P35408 whole entry S319A): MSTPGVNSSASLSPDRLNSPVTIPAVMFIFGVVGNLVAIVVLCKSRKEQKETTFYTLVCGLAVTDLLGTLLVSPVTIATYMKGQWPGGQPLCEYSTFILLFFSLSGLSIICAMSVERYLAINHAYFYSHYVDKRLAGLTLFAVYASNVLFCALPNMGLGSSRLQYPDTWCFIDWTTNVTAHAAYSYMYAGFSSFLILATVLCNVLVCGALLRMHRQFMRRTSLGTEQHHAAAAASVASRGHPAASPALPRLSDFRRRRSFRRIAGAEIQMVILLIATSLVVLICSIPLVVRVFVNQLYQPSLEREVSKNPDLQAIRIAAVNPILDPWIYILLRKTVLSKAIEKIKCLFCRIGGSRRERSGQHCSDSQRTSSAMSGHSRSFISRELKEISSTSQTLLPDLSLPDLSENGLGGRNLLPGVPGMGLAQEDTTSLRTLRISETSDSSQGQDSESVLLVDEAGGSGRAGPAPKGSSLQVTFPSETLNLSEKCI
Experimental: (§1) The full-length EP2 or EP4 was cloned into the pcDNA3.1 vector (Invitrogen), incorporating an N-terminal FLAG tag. AD293 cells were seeded in six-well plates containing DMEM supplemented with 10% dialyzed FBS 1 day prior to transfection. Following overnight growth, cells were transfected with a 1:1 ratio of receptor construct and GloSensor22F cAMP biosensor (Promega) plasmids.
(§2) Twenty-four hours post-transfection, the cells were transferred to CO2-independent media containing 2% GloSensor cAMP Reagent (Promega) and distributed into 384-well assay plates at a density of 4000 cells per well in 10 μL. […] The plates were then incubated at 37 °C for an additional hour before luminescence measurements were taken using an EnVision plate reader.
(§3) Data analysis was performed using GraphPad Prism software v8.0.1. A nonlinear regression analysis, employing a sigmoidal dose–response model, was conducted to determine the Emax values and half-maximum inhibitory concentrations (IC50) for each compound tested.

[2] = molecular target: T2, constitutively active EP4 WT (Homo sapiens, UniProt P35408)
T2 construct: The full-length EP2 or EP4 was cloned into the pcDNA3.1 vector (Invitrogen), incorporating an N-terminal FLAG tag; expressed in transfected cells; host or cells: AD293
T2 sequence (P35408 whole entry): as the sequence (P35408 whole entry S319A) above, with A319S counted along it
Experimental: as §1, §2, §3

[3] = molecular target: T3, constitutively active EP4 V320A (Homo sapiens, UniProt P35408, V320A); conditions: for ΔpIC50: no PGE2, pIC50 mutant - pIC50 WT, mean
T3 construct: The full-length EP2 or EP4 was cloned into the pcDNA3.1 vector (Invitrogen), incorporating an N-terminal FLAG tag; expressed in transfected cells; host or cells: AD293
T3 sequence (P35408 whole entry V320A): as the sequence (P35408 whole entry S319A) above, with A319S, V320A counted along it
Experimental: as §1, §2, §3

[4] = molecular target: T4, constitutively active EP4 V72A (Homo sapiens, UniProt P35408, V72A); conditions: for ΔpIC50: no PGE2, pIC50 mutant - pIC50 WT, mean
T4 construct: The full-length EP2 or EP4 was cloned into the pcDNA3.1 vector (Invitrogen), incorporating an N-terminal FLAG tag; expressed in transfected cells; host or cells: AD293
T4 sequence (P35408 whole entry V72A): as the sequence (P35408 whole entry S319A) above, with V72A, A319S counted along it
Experimental: as §1, §2, §3

IC50 [1]: 16.6 nM
remaining activity at 0.1 µM ([1]; 1 h, Grapiprant log([M]) -7.00, EP4-S319A, read-out: % cAMP activity (normalized to WT)): 23.1%
remaining activity at 0.01 µM ([1]; 1 h, Grapiprant log([M]) -8.00, EP4-S319A, read-out: % cAMP activity (normalized to WT)): 84.7%
remaining activity at 0.001 µM ([1]; 1 h, Grapiprant log([M]) -9.00, EP4-S319A, read-out: % cAMP activity (normalized to WT)): 130%
remaining activity at 1 pM ([1]; 1 h, Grapiprant log([M]) -12.00, EP4-S319A, read-out: % cAMP activity (normalized to WT)): 118%
Grapiprant cAMP activity (∆pIC50 from EP4 WT), Mean ([1]; S319A, Mean): -0.598
ΔpIC50 [1]: -0.60 ± 0.09
ΔpIC50 ([1]; listed as grapiprant): reduced the potency
IC50 [2]: 4.27 nM
remaining activity at 0.1 µM ([2]; 1 h, Grapiprant log([M]) -7.00, EP4-WT, read-out: % cAMP activity (normalized to WT)): 4.26%
remaining activity at 0.01 µM ([2]; 1 h, Grapiprant log([M]) -8.00, EP4-WT, read-out: % cAMP activity (normalized to WT)): 24.2%
remaining activity at 0.001 µM ([2]; 1 h, Grapiprant log([M]) -9.00, EP4-WT, read-out: % cAMP activity (normalized to WT)): 84.9%
remaining activity at 0.0001 µM ([2]; 1 h, Grapiprant log([M]) -10.00, EP4-WT, read-out: % cAMP activity (normalized to WT)): 92.5%
remaining activity at 10 pM ([2]; 1 h, Grapiprant log([M]) -11.00, EP4-WT, read-out: % cAMP activity (normalized to WT)): 101%
remaining activity at 1 pM ([2]; 1 h, Grapiprant log([M]) -12.00, EP4-WT, read-out: % cAMP activity (normalized to WT)): 101%
Grapiprant cAMP activity (∆pIC50 from EP4 WT) ([2]; WT, single experiments 1st-3rd): 0.061 and -0.077 and -0.012
IC50 [3]: 11.2 nM
remaining activity at 0.1 µM ([3]; 1 h, Grapiprant log([M]) -7.00, EP4-V320A, read-out: % cAMP activity (normalized to WT)): 7.66%
remaining activity at 0.01 µM ([3]; 1 h, Grapiprant log([M]) -8.00, EP4-V320A, read-out: % cAMP activity (normalized to WT)): 35.4%
remaining activity at 0.001 µM ([3]; 1 h, Grapiprant log([M]) -9.00, EP4-V320A, read-out: % cAMP activity (normalized to WT)): 48.1%
remaining activity at 0.0001 µM ([3]; 1 h, Grapiprant log([M]) -10.00, EP4-V320A, read-out: % cAMP activity (normalized to WT)): 61.4%
remaining activity at 10 pM ([3]; 1 h, Grapiprant log([M]) -11.00, EP4-V320A, read-out: % cAMP activity (normalized to WT)): 56.1%
remaining activity at 1 pM ([3]; 1 h, Grapiprant log([M]) -12.00, EP4-V320A, read-out: % cAMP activity (normalized to WT)): 50.8%
Grapiprant cAMP activity (∆pIC50 from EP4 WT), Mean ([3]; V320A, Mean): -0.388
ΔpIC50 [3]: -0.39 ± 0.12
ΔpIC50 ([3]; listed as grapiprant): reduced the potency
IC50 [4]: 18.6 nM
remaining activity at 0.1 µM ([4]; 1 h, Grapiprant log([M]) -7.00, EP4-V72A, read-out: % cAMP activity (normalized to WT)): 8.15%
remaining activity at 0.01 µM ([4]; 1 h, Grapiprant log([M]) -8.00, EP4-V72A, read-out: % cAMP activity (normalized to WT)): 28%
remaining activity at 0.001 µM ([4]; 1 h, Grapiprant log([M]) -9.00, EP4-V72A, read-out: % cAMP activity (normalized to WT)): 48.8%
remaining activity at 0.0001 µM ([4]; 1 h, Grapiprant log([M]) -10.00, EP4-V72A, read-out: % cAMP activity (normalized to WT)): 35.6%
remaining activity at 10 pM ([4]; 1 h, Grapiprant log([M]) -11.00, EP4-V72A, read-out: % cAMP activity (normalized to WT)): 41%
remaining activity at 1 pM ([4]; 1 h, Grapiprant log([M]) -12.00, EP4-V72A, read-out: % cAMP activity (normalized to WT)): 39%
Grapiprant cAMP activity (∆pIC50 from EP4 WT), Mean ([4]; V72A, Mean): -0.652
Grapiprant cAMP activity (∆pIC50 from EP4 WT) ([4]; V72A, single experiments 1st-3rd): -0.771 and -0.507 and -0.679
ΔpIC50 [4]: -0.65 ± 0.08
ΔpIC50 ([4]; listed as grapiprant): reduced the potency
Compound: CCc1nc2c(C)nc(C)cc2n1-c1ccc(CCNC(=O)NS(=O)(=O)c2ccc(C)cc2)cc1 [Grapiprant]
